From ChEMBL document CHEMBL5674860, “Optimized Dual-Glo Assay to identify co-culture-induced drug vulnerabilities in 3D CRC models” (2024)

Assays:
Format in all cases: functional, Homo sapiens
Design in all cases: dose or concentration left out as unconfirmed
Colon cancer organoid [1] = experiment: Optimized Dual-Glo assay to identify co-culture induced drug vulnerabilities using donated chemical probes and chemogenomics kinase set in O06 CRC organoid and F06 CAF mono and co-culture. […] Cell viability is reported both mono and co-culture models.
Colon cancer organoid [2] = experiment: Optimized Dual-Glo assay to identify co-culture induced drug vulnerabilities using donated chemical probes and chemogenomics kinase set in O14 CRC organoid and F14 CAF mono and co-culture. […] Cell viability is reported both mono and co-culture models.
Colon cancer organoid [3] = experiment: Optimized Dual-Glo assay to identify co-culture induced drug vulnerabilities using donated chemical probes and chemogenomics kinase set in O20 CRC organoid and F20 CAF mono and co-culture. […] Cell viability is reported both mono and co-culture models.
[4] = Culture type Co-Culture, Transduced with Lucferase2-P2A-EGFP lentivirus
[5] = Culture type Co-Culture, Transduced with Renilla-dsRed lentivirus
[6] = Culture type Mono-Culture, Transduced with Lucferase2-P2A-EGFP lentivirus
[7] = Culture type Mono-Culture, Transduced with Renilla-dsRed lentivirus

SMILES	Cell Viability (Colon cancer organoid [1]; [4])	Cell Viability (Colon cancer organoid [1]; [5])	Cell Viability (Colon cancer organoid [1]; [6])	Cell Viability (Colon cancer organoid [1]; [7])	Cell Viability (Colon cancer organoid [2]; [4])	Cell Viability (Colon cancer organoid [2]; [5])	Cell Viability (Colon cancer organoid [2]; [6])	Cell Viability (Colon cancer organoid [2]; [7])	Cell Viability (Colon cancer organoid [3]; [4])	Cell Viability (Colon cancer organoid [3]; [5])	Cell Viability (Colon cancer organoid [3]; [6])	Cell Viability (Colon cancer organoid [3]; [7])
Cc1c(C(=O)Nc2ccc(Oc3ccnc4[nH]cc(-c5ccccc5)c34)c(F)c2)c(=O)n(-c2ccc(F)cc2)n1C	73.6786%	56.2803%	78.2312%	39.3734%	84.4536%	22.1268%	155.311%	25.4653%	223.97%	22.9382%	217.145%	43.0843%
Cc1ccc2nc(NCCN)c3ncc(C)n3c2c1.O=C(O)C(F)(F)F.O=C(O)C(F)(F)F	94.0156%	112.188%	113.649%	154.019%	82.3615%	114.809%	73.2048%	109.465%	230.973%	67.6056%	101.148%	93.4293%
CN(C)C(=O)Cn1cc(-c2ccc(-c3nnc4ccccn34)cc2)cn1	105.212%	110.192%	69.5948%	88.4504%	93.0602%	86.1026%	137.129%	87.3202%	165.558%	52.6743%	140.63%	85.2439%
Cc1ncsc1-c1ccc(CNC(=O)[C@@H]2C[C@@H](O)CN2C(=O)[C@@H](NC(=O)CCCCNC(=O)c2ccc(-c3ccc(N4CCN(C)CC4)c(NC(=O)c4c[nH]c(=O)cc4C(F)(F)F)c3)cc2)C(C)(C)C)cc1	81.8894%	85.2238%	101.813%	95.3362%	94.9121%	103.946%	89.8204%	93.3904%	171.817%	86.697%	106.449%	104.541%
O=C(CNCc1cc2ccccc2[nH]1)N[C@H]1CC[C@@H](c2nc3ccccc3[nH]2)CC1	85.8975%	91.436%	103.293%	98.1178%	97.4401%	97.7804%	95.7204%	104.778%	100.625%	124.153%	84.865%	96.1375%
